Laboratory results taken from patent US11479587B2, “Cationic intrinsically disordered antimicrobial peptides” (priority 2016, dated 2022).
In brackets after ≈: the same amount, converted by molar mass. Non-standard residues stand in square brackets, D forms with d. Residues, ends and D or L forms follow the SMILES beside them. No end group written: not given here. *: point of attachment. Palmitoyl = CCCCCCCCCCCCCCCC(=O)*; Dap = NC[C@H](N)C(=O)O

Tests used:
[1] = Cytotoxicity (resazurin) assay
Description: For the cytotoxicity (resazurin) assay, HEK293 cells were counted manually in a Neubauer haemocytometer and plated at a density of 4000 cells/well into each well of the 384-well plates containing the 25×(2 μl) concentrated compounds. The medium used was Dulbecco's modified eagle medium (DMEM) supplemented with 10% foetal bovine serum (FBS). Cells were incubated together with the compounds for 20 h at 37° C., 5% CO2. To measure cytotoxicity, 5 μl (equals 100 μM final) resazurin was added to each well after incubation, and incubated for further 3 h at 37° C. with 5% CO2.
After final incubation fluorescence intensity was measured as F ex 560/10 nm, em 590/10 nm (F560/590) using a Tecan M1000 Pro monochromator plate reader. […] The concentration dependent percentage cytotoxicity was fitted to a dose response function (using Pipeline Pilot) and CC50 values determined.

[2] = system: A. baumannii ATCC 19606; type: cell-based, Acinetobacter baumannii; details: ATCC 19606, 2 h
Description: (§1) Inhibition of bacterial growth was determined using resazurin as a marker for cell viability. Resazurin was added to each well, at 0.001% final concentration, and plates incubated at 37° C. for 2 h. Fluorescence intensity was measured, using F (top read), ex 560/10 nm, em 590/10 nm, using a Tecan M1000 Pro monochromator plate reader.

[3] = system: methicillin-resistant S. aureus strain (ATCC 43300); type: cell-based, Staphylococcus aureus; details: ATCC 43300, 18 h
Description: Furthermore, sensitivity of a methicillin-resistant S. aureus strain (ATCC 43300) was investigated for palmitoylated CIDAMPs in a microtiter plate screening model, with incubation in Mueller-Hinton medium at 37° C. for 18 h using resazurin as a marker for cell viability.
A sample of each culture was then diluted 40-fold in fresh broth and incubated at 37° C. for 1.5-3 h. […] All the plates were covered and incubated at 37° C. for 18 h.
as §1

[4] = system: P. aeruginosa ATCC 10145; assay: CFU-assay, P. aeruginosa-cidal activity; type: cell-based, Pseudomonas aeruginosa; details: pH 5.5, 0.25% glucose
[5] = system: S. aureus ATCC 6538; assay: CFU-assay, S. aureus-cidal activity; type: cell-based, Staphylococcus aureus; details: pH 5.5, 0.25% glucose
Method in brief: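 Bactericidal CFU-assay in nutrient-deficient 10 mM sodium phosphate buffer pH 5.5 with 0.25% glucose, counting surviving colonies across twofold peptide dilutions from 300 μg/ml to 19 ng/ml. Output is minimal bactericidal concentration (e.g. MBC90, MBC100); some peptides also tested at pH 7.0.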

[6] = Hemolysis assay; type: cell-based
Description: (§2) For the hemolysis assays EDTA-blood was centrifuged at 800×g for 10 min, and the plasma and buffy coat were removed. The erythrocytes were washed three times and resuspended in 5% PBS, pH 7.4. The cells were then incubated with end-over-end rotation for 1 h at 37° C. in the presence of different concentrations of peptides (0, 3, 10, 30, 60 μm). 0.1% Triton X-100 (Sigma-Aldrich) served as positive control. The samples were then centrifuged at 800×g for 10 min.
(§3) The absorbance of hemoglobin release was measured at 540 nm and is expressed as % of Triton X-100-induced hemolysis. These values of triplicates were plotted with Graph Pad Prism 4 as a dose response curve and the CC50 was determined.

[7] = system: C. neoformans
[8] = system: C. albicans ATCC 928; details: for MIC, C. albicans ATCC 90028: ATCC 928; for MIC: ATCC 928, 18 h, pH 7.4
[9] = system: erythrocytes; assay: Hemolysis assay; type: cell-based
Description: as §2, §3

[10] = system: Burkholderia cepacia ATCC 25416; assay: CFU-assay, Burkholderia cepacia-cidal activity; type: cell-based
[11] = system: Klebsiella pneumoniae ATCC 13883; assay: CFU-assay, Klebsiella pneumoniae-cidal activity; type: cell-based

| Molecule | CC50 [1] [µg/mL] | MIC, S. aureus ATCC 43300 [3] [µg/mL] | MIC, C. neoformans ATCC 208821 [7] [µg/mL] | HC50 [6] [µg/mL] | hemolytic activity (in words) [9] | further results |
| --- | --- | --- | --- | --- | --- | --- |
| CCCCCCCCCCCCCCCC(=O)NCC(=O)N[C@@H](CCN)C(=O)NCC(=O)N[C@@H](CCN)C(=O)O [Pal-GDab4, Pal-GDabGDab] (HELM PEPTIDE1{[CCCCCCCCCCCCCCCC(=O)[*:2]].G.[Dab].G.[Dab]}$$$$V2.0) | 32 (≈ 56.1 µM) | ≥32 | ≥16 | – | – | MIC, A. baumannii ATCC 19606 [2]: ≥32 µg/mL; MBC90 [4]: 2.35 µg/mL (≈ 4.12 µM); MBC100 [4]: 9.38 µg/mL (≈ 16.4 µM); MBC90 [5]: 4.7 µg/mL (≈ 8.23 µM); MBC100 [5]: 18.75 µg/mL (≈ 32.9 µM); CC50 [6]: > 100 µg/mL |
| CCCCCCCCCCCCCCCC(=O)NCC(=O)N[C@@H](CN)C(=O)NCC(=O)N[C@@H](CN)C(=O)O [Pal-GDap4, Pal-GDapGDap] (Palmitoyl-G[Dap]G[Dap]-OH) | > 32 | ≥8 | ≥1 | > 300 | low hemolytic activity | MIC, C. albicans ATCC 90028 [8]: ≥8 µg/mL; MIC [8]: 1 to 32 µg/mL |
| CCCCCCCCCCCCCCCC(=O)NCC(=O)N[C@@H](CCCCN)C(=O)N[C@@H](CCCCN)C(=O)NCC(=O)NCC(=O)N[C@@H](CCCCN)C(=O)NCC(=O)NCC(=O)N[C@@H](CCCCN)C(=O)NCC(=O)N[C@@H](CCCCN)C(=O)NCC(=O)N[C@@H](CCCCN)C(=O)O [Pal-K-GR13] (HELM PEPTIDE1{[CCCCCCCCCCCCCCCC(=O)[*:2]].G.K.K.G.G.K.G.G.K.G.K.G.K}$$$$V2.0) | > 32 | – | – | > 300 | low hemolytic activity | – |
| CCCCCCCCCCCCCCCC(=O)N[C@@H](CO)C(=O)N[C@@H](Cc1c[nH]cn1)C(=O)N[C@@H](Cc1c[nH]cn1)C(=O)N[C@@H](CCCNC(=N)N)C(=O)N[C@@H](Cc1c[nH]cn1)C(=O)N[C@@H](Cc1ccccc1)C(=O)N[C@@H](CCCNC(=N)N)C(=O)N[C@@H](CO)C(=O)N[C@@H](Cc1c[nH]cn1)C(=O)N[C@@H](CCC(N)=O)C(=O)N[C@@H](CS)C(=O)N[C@@H](CCCNC(=N)N)C(=O)N[C@@H](CCCNC(=N)N)C(=O)O [Pal-LCE3C55-67] (HELM PEPTIDE1{[CCCCCCCCCCCCCCCC(=O)[*:2]].S.H.H.R.H.F.R.S.H.Q.C.R.R}$$$$V2.0) | > 32 | ≥32 | ≥1 | > 100 | – | MIC, C. albicans ATCC 90028 [8]: ≥16 µg/mL; MIC [8]: 1 to 32 µg/mL |
| CCCCCCCCCCCCCCCC(=O)NCC(=O)N[C@@H](CCCN)C(=O)N[C@@H](CCCN)C(=O)NCC(=O)NCC(=O)N[C@@H](CCCN)C(=O)NCC(=O)NCC(=O)N[C@@H](CCCN)C(=O)NCC(=O)N[C@@H](CCCN)C(=O)NCC(=O)N[C@@H](CCCN)C(=O)O [Pal-Orn-GR13, Pal-GOOGGOGGOGOGO] (HELM PEPTIDE1{[CCCCCCCCCCCCCCCC(=O)[*:2]].G.[Orn].[Orn].G.G.[Orn].G.G.[Orn].G.[Orn].G.[Orn]}$$$$V2.0) | > 32 | – | – | > 300 | low hemolytic activity | – |
| Pal-GRRGSGLGRSSSRGGRGSGSGR (Palmitoyl-GRRGSGLGRSSSRGGRGSGSGR) [Pal-HR 1-18 4H-4R] | – | – | – | – | – | MBC90 ([10]; pH 7.3, 0.25% glucose): 75 µg/mL; MBC100 ([10]; pH 7.3, 0.25% glucose): 300 µg/mL; MBC90 ([10]; pH 7.3, 1% TSB): 75 µg/mL; MBC100 ([10]; pH 7.3, 1% TSB): 150 µg/mL |
| Pal-SHHRPRLFHRRRH (Palmitoyl-SHHRPRLFHRRRH) [Pal-LCE-3B] | – | – | – | – | – | MBC90 ([11]; pH 5.5, 0.25% glucose): 0.15 µg/mL; MBC100 ([11]; pH 5.5, 0.25% glucose): 9.38 µg/mL; MBC90 ([11]; pH 7.3, 0.25% glucose): 2.35 µg/mL; MBC100 ([11]; pH 7.3, 0.25% glucose): 4.7 µg/mL |
| S-Pal-LCE3C55-75: palmitoylated peptide named among those with low hemolytic activity (SHHRHFRSHQCRRQRSNSCDR; also: S-palmitoylated, Cys not given here; UniProt Q5T5A8 55-75, looked up, fragment) | – | – | – | – | low hemolytic activity | – |
